Patent US11339171B2, “MDM2 inhibitors” (Gan & Lee Pharmaceuticals, priority 2017, dated 2022)

Molecular target: T1, MDM2 (Homo sapiens, UniProt Q00987)
T1 construct: made in house
Experiment: Inhibition test of MDM2-P53 (GST-MDM2, Biotin-P53, Anti-GST-Tb, SA-XL665)
Type: binding
Details: not given
Outline: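 Compounds, serially diluted 5-fold (twelve concentrations), were shaken for 90 min at 25° C with a mix of GST-MDM2 (4 nM final), Biotin-P53, anti-GST-Tb and SA-XL665. Buffer: 1×PBS, 0.1% BSA, 5 mM DTT, 1 mM AEBSF; signal read on a microplate reader.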

T1 sequence (Q00987 whole entry): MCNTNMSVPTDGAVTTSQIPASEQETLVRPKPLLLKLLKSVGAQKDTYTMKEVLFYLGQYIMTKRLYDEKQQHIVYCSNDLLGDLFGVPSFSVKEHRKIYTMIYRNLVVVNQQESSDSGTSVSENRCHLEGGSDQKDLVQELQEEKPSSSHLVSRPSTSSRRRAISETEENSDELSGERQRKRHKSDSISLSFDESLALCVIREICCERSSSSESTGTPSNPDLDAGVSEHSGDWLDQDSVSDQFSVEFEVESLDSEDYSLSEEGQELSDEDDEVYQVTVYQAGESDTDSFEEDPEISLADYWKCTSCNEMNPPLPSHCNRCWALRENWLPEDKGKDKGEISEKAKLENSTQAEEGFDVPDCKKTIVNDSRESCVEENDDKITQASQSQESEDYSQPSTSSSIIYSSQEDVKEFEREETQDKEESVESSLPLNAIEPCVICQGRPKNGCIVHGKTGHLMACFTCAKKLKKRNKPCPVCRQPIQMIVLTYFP

SMILES | IC50
COc1c(F)cccc1-c1nc2c(n1C(C)C)[C@]1(C(=O)Nc3cc(Cl)ccc31)N(c1cc(Cl)ccc1C)C2=O [Example R-76, (R)-6-chloro-5′-(5-chloro-2-methylphenyl)-2′-(3-fluoro-2-methoxyphenyl)-3′-isopropyl-3′H-spiro[dihydroindole-3,4′-pyrrolo[3,4-d]imidazole]-2,6′(5′H)-dione] | 579 nM
COc1ncc(-c2nc3c(n2C(C)C)[C@]2(C(=O)Nc4cc(Cl)ccc42)N(c2ccc(C#N)c(Cl)c2)C3=O)c(OC)n1 [Example R-158, (R)-2-chloro-4-(6-chloro-2′-(2,4-dimethoxypyrimidin-5-yl)-3′-isopropyl-2,6′-dioxo-3′,6′-dihydro-5′H-spiro[dihydroindole-3,4′-pyrrolo[3,4-d]imidazole]-5′-yl)benzonitrile] | 2200 nM
COc1cc(C(F)(F)F)ncc1-c1nc2c(n1C(C)C)[C@]1(C(=O)Nc3cc(Cl)ccc31)N(c1cc(Cl)ccc1C)C2=O [Example R-138, (R)-6-chloro-5′-(5-chloro-2-methylphenyl)-3′-isopropyl-2′-(4-methoxy-6-(trifluoromethyl)pyridin-3-yl)-3′H-spiro[dihydroindole-3,4′-pyrrolo[3,4-d]imidazole]-2,6′(5′H)-dione] | 132 nM
COc1cc(C2CC2)ccc1-c1nc2c(n1C(C)C)[C@]1(C(=O)Nc3cc(Cl)ccc31)N(c1cc(Cl)cnc1C)C2=O [Example R-145, (R)-6-chloro-5′-(5-chloro-2-methylpyridin-3-yl)-2′-(4-cyclopropyl-2-methoxyphenyl)-3′-isopropyl-3′H-spiro[dihydroindole-3,4′-pyrrolo[3,4-d]imidazole]-2,6′(5′H)-dione] | 749 nM
COc1cc(OC(C)C)ncc1-c1nc2c(n1C(C)C)[C@]1(C(=O)Nc3cc(Cl)ccc31)N(c1cccc(Cl)c1)C2=O [Example R-95, (R)-6-chloro-5′-(3-chlorophenyl)-2′-(6-isopropoxy-4-methoxypyridin-3-yl)-3′-isopropyl-3′H-spiro[dihydroindole-3,4′-pyrrolo[3,4-d]imidazole]-2,6′(5′H)-dione] | 1670 nM
COc1cc(C#N)ccc1-c1nc2c(n1C(C)C)[C@]1(C(=O)Nc3cc(Cl)ccc31)N(c1cccc(Cl)c1)C2=O [Example R-128, (R)-4-(6-chloro-5′-(3-chlorophenyl)-3′-isopropyl-2,6′-dioxo-5′,6′-dihydro-3′H-spiro[dihydroindole-3,4′-pyrrolo[3,4-d]imidazole]-2′-yl)-3-methoxybenzonitrile] | 612 nM
CCOc1cc(OC)c(-c2nc3c(n2C(C)C)[C@]2(C(=O)Nc4cc(Cl)ccc42)N(c2cc(F)cc(Cl)c2)C3=O)cn1 [Example R-139, (R)-6-chloro-5′-(3-chloro-5-fluorophenyl)-2′-(6-ethoxy-4-methoxypyridin-3-yl)-3′-isopropyl-3′H-spiro[dihydroindole-3,4′-pyrrolo[3,4-d]imidazole]-2,6′(5′H)-dione] | 342 nM
COc1cc(C2CC2)ncc1-c1nc2c(n1C(C)C)[C@]1(C(=O)Nc3cc(Cl)ccc31)N(c1cccc(Cl)c1)C2=O [Example R-106, (R)-6-chloro-5′-(3-chlorophenyl)-2′-(6-cyclopropyl-4-methoxypyridin-3-yl)-3′-isopropyl-3′H-spiro[dihydroindole-3,4′-pyrrolo[3,4-d]imidazole]-2,6′(5′H)-dione] | 481 nM
COc1nc(C2CC2)ncc1-c1nc2c(n1C(C)C)[C@]1(C(=O)Nc3cc(Cl)ccc31)N(c1cc(Cl)ccc1C)C2=O [Example R-121, (R)-6-chloro-5′-(5-chloro-2-methylphenyl)-2′-(2-cyclopropyl-4-methoxypyrimidin-5-yl)-3′-isopropyl-3′H-spiro[dihydroindole-3,4′-pyrrolo[3,4-d]imidazole]-2,6′ (5′H)-dione] | 300 nM
COc1cccc(OC)c1-c1nc2c(n1C(C)C)[C@]1(C(=O)Nc3cc(Cl)ccc31)N(c1cc(Cl)ccc1C)C2=O [Example R-79, (R)-6-chloro-5′-(5-chloro-2-methylphenyl)-2′-(2,6-dimethoxyphenyl)-3′-isopropyl-3′H-spiro[dihydroindole-3,4′-pyrrolo[3,4-d]imidazole]-2,6′(5′H)-dione] | 285 nM
COc1cc(OC)c(-c2nc3c(n2C(C)C)[C@]2(C(=O)Nc4cc(Cl)ccc42)N(c2cc(F)cc(Cl)c2)C3=O)cn1 [Example R-175, (R)-6-chloro-5′-(3-chloro-5-fluorophenyl)-2′-(4,6-dimethoxypyridin-3-yl)-3′-isopropyl-3′H-spiro[dihydroindole-3,4′-pyrrolo[3,4-d]imidazole]-2,6′(5′H)-dione] | 522 nM
COc1ccc(-c2nc3c(n2C(C)C)[C@]2(C(=O)Nc4cc(Cl)ccc42)N(c2cc(Cl)cn(C)c2=O)C3=O)c(OC)c1 [Example R-39, (R)-6-chloro-5′-(5-chloro-1-methyl-2-oxo-1,2-dihydropyridin-3-yl)-2′-(2,4-dimethoxyphenyl)-3′-isopropyl-3′H-spiro[dihydroindole-3,4′-pyrrolo[3,4-d]imidazole]-2,6′(5′H)-dione] | 1850 nM
COc1cc(C(F)(F)F)ccc1-c1nc2c(n1C(C)C)[C@]1(C(=O)Nc3cc(Cl)ccc31)N(c1cccc(Cl)c1)C2=O [Example R-129, (R)-6-chloro-5′-(3-chlorophenyl)-3′-isopropyl-2′-(2-methoxy-4-(trifluoromethyl)phenyl)-3′H-spiro[dihydroindole-3,4′-pyrrolo[3,4-d]imidazole]-2,6′(5′H)-dione] | 149 nM
COc1ncc(-c2nc3c(n2C(C)C)[C@]2(C(=O)Nc4cc(Cl)ccc42)N(c2ccc(C(N)=O)c(Cl)c2)C3=O)c(OC)n1 [Example R-60, (R)-2-chloro-4-(6-chloro-2′-(2,4-dimethoxypyrimidin-5-yl)-3′-isopropyl-2,6′-dioxo-3′,6′-dihydro-5′H-spiro[dihydroindole-3,4′-pyrrolo[3,4-d]imidazole]-5′-yl)benzamide] | 1070 nM
COc1nc(OC(C)C)ncc1-c1nc2c(n1C(C)C)[C@]1(C(=O)Nc3cc(Cl)ccc31)N(c1cc(Cl)cnc1C)C2=O [Example R-136, (R)-6-chloro-5′-(5-chloro-2-methylpyridin-3-yl)-2′-(2-isopropoxy-4-methoxypyrimidin-5-yl)-3′-isopropyl-3′H-spiro[dihydroindole-3,4′-pyrrolo[3,4-d]imidazole]-2,6′(5′H)-dione] | 1800 nM
CCOc1ncc(-c2nc3c(n2C(C)C)[C@]2(C(=O)Nc4cc(Cl)ccc42)N(c2cccc(Cl)c2)C3=O)c(OC)n1 [Example R-123, (R)-6-chloro-5′-(3-chlorophenyl)-2′-(2-ethoxy-4-methoxypyrimidin-5-yl)-3′-isopropyl-3′H-spiro[dihydroindole-3,4′-pyrrolo[3,4-d]imidazole]-2,6′(5′H)-dione] | 116 nM
COc1cc(N)ccc1-c1nc2c(n1C(C)C)[C@]1(C(=O)Nc3cc(Cl)ccc31)N(c1ccc(F)c(Cl)c1)C2=O [Example R-73, (R)-2′-(4-amino-2-methoxyphenyl)-6-chloro-5′-(3-chloro-4-fluorophenyl)-3′-isopropyl-3′H-spiro[dihydroindole-3,4′-pyrrolo[3,4-d]imidazole]-2,6′(5′H)-dione] | 142 nM
COc1nc(N(C)C)ncc1-c1nc2c(n1C(C)C)[C@]1(C(=O)Nc3cc(Cl)ccc31)N(c1cc(Cl)ccc1C)C2=O [Example R-82, (R)-6-chloro-5′-(5-chloro-2-methylphenyl)-2′-(2-(dimethylamino)-4-methoxypyrimidin-5-yl)-3′-isopropyl-3′H-spiro[dihydroindole-3,4′-pyrrolo[3,4-d]imidazole]-2,6′(5′H)-dione] | 394 nM
COc1ncc(-c2nc3c(n2C(C)C)[C@@]2(C(=O)Nc4cc(Cl)ccc42)N(c2ccc(C(N)=O)c(Cl)c2)C3=O)c(OC)n1 [Example S-60, (S)-2-chloro-4-(6-chloro-2′-(2,4-dimethoxypyrimidin-5-yl)-3′-isopropyl-2,6′-dioxo-3′,6′-dihydro-5′H-spiro[dihydroindole-3,4′-pyrrolo[3,4-d]imidazole]-5′-yl)benzamide] | 4.81 nM
COc1nc(C)ncc1-c1nc2c(n1C(C)C)[C@]1(C(=O)Nc3cc(Cl)ccc31)N(c1cc(Cl)ccc1C)C2=O [Example R-118, (R)-6-chloro-5′-(5-chloro-2-methylphenyl)-3′-isopropyl-2′-(4-methoxy-2-methylpyrimidin-5-yl)-3′H-spiro[dihydroindole-3,4′-pyrrolo[3,4-d]imidazole]-2,6′(5′H)-dione] | 436 nM

Same assay, conditions: labels are Example numbers; the compounds with S-configuration are meant

SMILES | inhibitory effect on MDM2 compared with positive control compound HDM201
COc1cc(OC(C)C)ncc1-c1nc2c(n1C(C)C)C1(C(=O)Nc3cc(Cl)ccc31)N(c1cccc(Cl)c1)C2=O (stereo not drawn) [Example 95, 6-chloro-5′-(3-chlorophenyl)-2′-(6-isopropoxy-4-methoxypyridin-3-yl)-3′-isopropyl-3′H-spiro[dihydroindole-3,4′-pyrrolo[3,4-d]imidazole]-2,6′(5′H)-dione] | better
COc1cc(OCCF)ncc1-c1nc2c(n1C(C)C)C1(C(=O)Nc3cc(Cl)ccc31)N(c1cc(Cl)ccc1C)C2=O (stereo not drawn) [Example 163, 6-chloro-5′-(5-chloro-2-methylphenyl)-2′-(6-(2-fluoroethoxy)-4-methoxypyridin-3-yl)-3′-isopropyl-3′H-spiro[dihydroindole-3,4′-pyrrolo[3,4-d]imidazole]-2,6′(5′H)-dione] | better
COc1ccc(C)cc1-c1nc2c(n1C(C)C)C1(C(=O)Nc3cc(Cl)ccc31)N(c1cc(Cl)ccc1C)C2=O (stereo not drawn) [Example 62, 6-chloro-5′-(5-chloro-2-methylphenyl)-3′-isopropyl-2′-(2-methoxy-5-methylphenyl)-3′H-spiro[dihydroindole-3,4′-pyrrolo[3,4-d]imidazole]-2,6′(5′H)-dione] | better
COc1cc(OC(F)F)ncc1-c1nc2c(n1C(C)C)C1(C(=O)Nc3cc(Cl)ccc31)N(c1cc(Cl)ccc1C)C2=O (stereo not drawn) [Example 150, 6-chloro-5′-(5-chloro-2-methylphenyl)-2′-(6-(difluoromethoxy)-4-methoxypyridin-3-yl)-3′-isopropyl-3′H-spiro[dihydroindole-3,4′-pyrrolo[3,4-d]imidazole]-2,6′(5′H)-dione] | better
